Assay results reported in patent publication US10513538B2, “Dipeptidyl peptidase-IV (DPPIV), inhibitory peptide compound, composition containing the same, and production method for the same” (MARUHA NICHIRO CORPORATION, priority 2013, dated 2019).
Residues, ends and D or L forms follow the SMILES beside them.

Biological target: T1, DPPIV (Human, recombinant) (Homo sapiens, UniProt P27487)
T1 construct: purchased Biomol (DPPIV Drug Discovery Assay Kit, Enzo Life Sciences, Inc.)
Test: DPPIV inhibitory activity measurement with partly modified DPPIV Drug Discovery Assay Kit (AMC substrate)
Assay type: biochemical
Conditions: for IC50: synthesized peptide, serially diluted; for Activity Contribution Ratio (%): contribution of the peptide to the DPPIV inhibitory activity of the salmon milt peptide composition, from content, peptide IC50 and composition IC50
Procedure: Each of the DPPIV inhibitory peptide compounds obtained in Example 1 was measured for the DPPIV inhibitory activity. The measurement was performed by using a partly modified DPPIV Drug Discovery Assay Kit (manufactured by Enzo Life Sciences, Inc.). As a substrate of a DPPIV enzyme, an AMC substrate (H-Gly-Pro-amino-4-methylcoumarin, BML-P189-9090; manufactured by Biomol) was used, as an enzyme, DPPIV (Human, recombinant; manufactured by Biomol) was used, and as a control inhibitor, Diprotin A (manufactured by Peptide Institute Inc.) was used. […] To the resultant solution, 50 μL of an AMC substrate solution (0.01 mM) pre-incubated at 37° C. was added, and a fluorescence intensity was measured at an excitation wavelength of 340 nm and a measurement wavelength of 460 nm every 5 minutes for 30 minutes by using a microplate reader (GENio Pro, manufactured by TECAN). The activity in the case without sample was set as 100%, and the relative activity of each sample was calculated. The measurement was repeatedly performed three times for each sample to obtain an average.
Each of the peptide compositions thus obtained was dissolved in distilled water in a concentration of 3 mg/mL, the resultant was subjected to a 0.45 μm membrane filter treatment, and the DPPIV inhibitory activity test was performed in the same manner as in Example 2.
Each peptide identified by the LC-MS analysis of Example 6 was synthesized and dissolved in distilled water to find the DPPIV inhibitory activity in the same manner as in Example 2.

T1 sequence (P27487 whole entry): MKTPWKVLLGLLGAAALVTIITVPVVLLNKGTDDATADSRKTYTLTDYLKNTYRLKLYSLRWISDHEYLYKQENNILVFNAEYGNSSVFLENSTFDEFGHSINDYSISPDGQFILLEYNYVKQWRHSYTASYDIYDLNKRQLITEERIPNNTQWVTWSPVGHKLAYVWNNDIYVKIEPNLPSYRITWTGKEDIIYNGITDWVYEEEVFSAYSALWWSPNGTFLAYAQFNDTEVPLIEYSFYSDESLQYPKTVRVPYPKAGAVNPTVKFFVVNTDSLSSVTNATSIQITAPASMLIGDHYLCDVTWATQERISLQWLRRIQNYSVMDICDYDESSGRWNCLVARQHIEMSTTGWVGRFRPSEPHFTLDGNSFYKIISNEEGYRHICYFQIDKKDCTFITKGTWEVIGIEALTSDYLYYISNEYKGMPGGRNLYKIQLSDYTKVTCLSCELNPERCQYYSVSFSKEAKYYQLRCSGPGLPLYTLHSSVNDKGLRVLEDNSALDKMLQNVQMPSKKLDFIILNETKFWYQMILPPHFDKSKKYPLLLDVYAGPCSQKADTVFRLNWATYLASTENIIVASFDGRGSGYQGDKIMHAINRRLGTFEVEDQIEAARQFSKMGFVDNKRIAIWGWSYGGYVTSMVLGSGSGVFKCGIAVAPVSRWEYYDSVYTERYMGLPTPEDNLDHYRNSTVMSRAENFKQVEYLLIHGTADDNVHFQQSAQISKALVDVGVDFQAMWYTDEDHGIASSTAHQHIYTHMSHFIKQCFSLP

Compound	IC50 [µM]	Activity Contribution Ratio (%)
N[C@@H](Cc1ccccc1)C(=O)N1CCC[C@H]1C(=O)O [FP, Phe-Pro] (H-Phe-Pro-OH)	> 100	
CC(C)[C@H](NC(=O)[C@@H]1CCCN1C(=O)[C@@H](N)Cc1ccccc1)C(=O)NCC(=O)O [FPVG, Phe-Pro-Val-Gly] (H-FPVG-OH; N-terminus and C-terminus assumed)	40	0.4
CC[C@H](C)[C@H](N)C(=O)N1CCC[C@H]1C(=O)O [IP, Ile-Pro] (H-Ile-Pro-OH; N-terminus and C-terminus assumed)	66	6.6
CC(C)C[C@H](N)C(=O)N1CCC[C@H]1C(=O)O [LP, Leu -Pro] (H-Leu-Pro-OH)	> 100	
CC(C)C[C@H](NC(=O)[C@@H](NC(=O)[C@@H]1CCCN1C(=O)[C@@H](N)CC(C)C)C(C)C)C(=O)O [LPVL, Leu-Pro-Val-Leu] (H-LPVL-OH; N-terminus and C-terminus assumed)	46	0.2
